Data from patent US20130059859A1, “PREDICTIVE BIOMARKERS FOR PI3K/AKT KINASE PATHWAY INHIBITOR EFFICACY” (GENENTECH, INC., priority 2010, published 2013).

Experiments:
FOXO3a = FOXO3a immunofluorescence localization (cytoplasm-to-nucleus translocation) assay; type: cell-based
Method: Tissue culture cells are plated in 96 well culture plates in culture medium with 10% (full) serum. 24 hours later, cells are dosed with 1 uM of indicated drug for 6 hours at which point cells are directly fixed in 4% formaldehyde in protein-free phosphate-buffered saline (PBS) for 20 min at 37° C. Plates are washed and then cells permeabilized by a 10 min incubation in ice cold methanol. Plates are washed to remove methanol and incubated with anti-FOXO3a antibody (Cell Signaling Technology, catalog #2497, clone 75D8) in antibody dilution buffer (1% BSA, 0.3% Triton X-100 in PBS) at a 1:20 dilution of primary antibody, along with Hoechst nuclear stain (1:10,000 dilution). Cells are incubated overnight at 4° C. Plates are washed to remove primary antibody and then incubated with secondary antibody, goat anti-rabbit conjugated to Alexa-flour 488 dye (Invitrogen) for 1 hr at ambient temperature in the dark. Plates are washed with PBS, sealed with black plate sealer and analyzed on the Cellomics HCS ArrayScan Imager using the Cytoplasm-to-Nucleus translocation bioapplication (Thermo Scientific).

breast cancer cell lines = details: panel of breast cancer cell lines; Hoeflich et al 2009; cited from earlier work
[1] = test system: PTEN null breast cancer cell lines; assay: Cell line sensitivity to AKT inhibitor (IC50); type: cell-based
[2] = PI3K/AKT inhibitor resistant cell lines, FIG. 8
[3] = cell lines sensitive to PI3K/AKT inhibitors, FIG. 7
[4] = resistant lines with PI3K/AKT activation (MB-468 with PTEN loss), FIG. 8

SMILES | FOXO3a localization upon treatment (FOXO3a; [2]) | FOXO3a localization upon treatment (FOXO3a; cell lines resistant to GDC-0941, FIG. 10B) | FOXO3a localization upon treatment (FOXO3a; cell lines sensitive to GDC-0941, FIG. 10A) | FOXO3a localization upon treatment (FOXO3a; [3]) | FOXO3a localization upon treatment (FOXO3a; [4]) | activity at the concentration used (breast cancer cell lines) | FOXO3a localization upon treatment (FOXO3a; breast cancer cell lines, FIGS. 11A-C) | sensitivity of cell line to AKT inhibitor ([1]; MDA-MB-468, cell line with PTEN loss) | IC50 ([1]; resistant cell lines with PTEN null status, FIG. 5) [µM] | FOXO3a localization post-treatment (FOXO3a; BT474 cells, FIG. 2B)
CS(=O)(=O)N1CCN(Cc2cc3nc(-c4cccc5[nH]ncc45)nc(N4CCOCC4)c3s2)CC1 [GDC-0941, 2-(1H-Indazol-4-yl)-6-(4-methanesulfonyl-piperazin-1-ylmethyl)-4-morpholin-4-yl-thieno[3,2-d]pyrimidine] | remains nuclear | remains nuclear | relocalizes from cytoplasm to nucleus | translocated from cytoplasm to nucleus | more complete relocalization to nucleus | – | – | – | – | –
O=C(NOC[C@H](O)CO)c1ccc(F)c(F)c1Nc1ccc(I)cc1F [PD901, reference compound] | – | – | – | – | – | active | unchanged | – | – | –
CC(C)NC[C@@H](C(=O)N1CCN(c2ncnc3c2[C@H](C)C[C@H]3O)CC1)c1ccc(Cl)cc1 [GDC-0068, (S)-2-(4-chlorophenyl)-1-(4-((5R,7R)-7-hydroxy-5-methyl-6,7-dihydro-5H-cyclopenta[d]pyrimidin-4-yl)piperazin-1-yl)-3-(isopropylamino)propan-1-one] | remains nuclear | – | – | translocated from cytoplasm to nucleus | more complete relocalization to nucleus | – | – | resistant | > 20 | translocated to the nucleus
